According to patent US20150010928A1, “MEANS AND METHODS FOR ASSESSING AN ENDOCRINE DISEASE OR DISORDER” (priority 2012, published 2015):
Marks after values point to notes of the source that are not given here.

Test system: female rats
Assay: Plasma metabolite profiling (GC-MS, LC-MS, SPE-LC-MS) in female rats dosed once daily over 28 days (OECD 407)
Type: in vivo, rat
Details: high dose
Outline: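 Polar and lipid fractions profiled by GC-MS and LC-MS/MRM, steroids by online SPE-LC-MS; pool-normalized data compared to controls by Welch test as treatment ratios and p-values.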

## C[C@]12C=CC3=C4CCC(=O)C=C4CCC3C1CC[C@@H]2O (stereo partly drawn) [Trenbolone]
f7, female rats, Table 15a
  3-Hydroxybutyrate: 2.05 *
  DAG (C18:1,C18:2): 1.42 *
  Glutamate: 1.18
  Glycine: 1.18 *
  Phosphatidylcholine (C16:0,C20:5): 1.09
  TAG (C16:0,C16:1): 1.49 *
  TAG (C16:0,C18:1,C18:3): 1.48 *
  TAG (C16:0,C18:2): 1.83 *
  TAG (C18:1,C18:2): 1.72 *
  TAG (C18:2,C18:2): 1.61 *
  TAG (C18:3, C18:2, C18:1): 1.92 *
  TAG (DAG-Fragment): 1.8 *
  TAG No 059: 1.62 *
  Threonic acid: 1.28 *
  trans-4-Hydroxyproline: 1.31 *
f7, female rats, Table 15b
  Androstenedione: 0.3 *
  Arginine: 0.76 *
  Campesterol: 0.53 *
  Ceramide (d18:1,C24:0): 0.5 *
  Lactate: 0.65 *
  Lysine: 0.68 *
  Metanephrine: 1
  Normetanephrine: 0.83 *
  Phosphatidylcholine (C16:0,C20:5): 1.09
  Phosphatidylcholine (C16:0,C22:6): 0.89
  Phosphatidylcholine (C18:0, C20:3): 0.77 *
  Phosphatidylcholine (C18:0,C18:1): 0.84
  Progesterone: 0.34 *
  Pyruvate: 0.57 *
  Sphingomyelin (d18:1,C23:0): 0.51 *
  Sphingomyelin (d18:1,C24:0): 0.62 *
  Urea: 0.74 *
f14, female rats, Table 15a
  3-Hydroxybutyrate: 1.73 *
  DAG (C18:1,C18:2): 1.56
  Glutamate: 1.13 *
  Glycine: 1.2 *
  Phosphatidylcholine (C16:0,C20:5): 1.18 *
  TAG (C16:0,C16:1): 1.41
  TAG (C16:0,C18:1,C18:3): 2.26 *
  TAG (C16:0,C18:2): 1.9
  TAG (C18:1,C18:2): 1.97 *
  TAG (C18:2,C18:2): 2.21 *
  TAG (C18:3, C18:2, C18:1): 2.39 *
  TAG (DAG-Fragment): 2.67 *
  TAG No 059: 2.14 *
  Threonic acid: 1.76 *
  trans-4-Hydroxyproline: 1.37 *
f14, female rats, Table 15b
  Androstenedione: 0.15 *
  Arginine: 0.69 *
  Campesterol: 0.4 *
  Ceramide (d18:1,C24:0): 0.41 *
  Lactate: 0.56 *
  Lysine: 0.62 *
  Metanephrine: 1.03
  Normetanephrine: 0.83 *
  Phosphatidylcholine (C16:0,C20:5): 1.18
  Phosphatidylcholine (C16:0,C22:6): 0.87 *
  Phosphatidylcholine (C18:0, C20:3): 0.75 *
  Phosphatidylcholine (C18:0,C18:1): 0.66 *
  Progesterone: 0.17 *
  Pyruvate: 0.61 *
  Sphingomyelin (d18:1,C23:0): 0.46 *
  Sphingomyelin (d18:1,C24:0): 0.64 *
  Urea: 0.72 *
f28, female rats, Table 15a
  3-Hydroxybutyrate: 1.32 *
  DAG (C18:1,C18:2): 1.79 *
  Glutamate: 1.23 *
  Glycine: 1.37 *
  Phosphatidylcholine (C16:0,C20:5): 1.17 *
  TAG (C16:0,C16:1): 1.28 *
  TAG (C16:0,C18:1,C18:3): 2.48 *
  TAG (C16:0,C18:2): 2.08 *
  TAG (C18:1,C18:2): 2.25 *
  TAG (C18:2,C18:2): 2.7 *
  TAG (C18:3, C18:2, C18:1): 3.06 *
  TAG (DAG-Fragment): 3.12 *
  TAG No 059: 2.7 *
  Threonic acid: 0.84
  trans-4-Hydroxyproline: 1.66 *
f28, female rats, Table 15b
  Androstenedione: 0.23 *
  Arginine: 0.78 *
  Campesterol: 0.9
  Ceramide (d18:1,C24:0): 0.69 *
  Lactate: 0.59 *
  Lysine: 0.65 *
  Metanephrine: 0.47 *
  Normetanephrine: 0.75 *
  Phosphatidylcholine (C16:0,C20:5): 1.17
  Phosphatidylcholine (C16:0,C22:6): 0.93
  Phosphatidylcholine (C18:0, C20:3): 0.87 *
  Phosphatidylcholine (C18:0,C18:1): 0.81 *
  Progesterone: 0.3 *
  Pyruvate: 0.72 *
  Sphingomyelin (d18:1,C23:0): 0.64 *
  Sphingomyelin (d18:1,C24:0): 0.74 *
  Urea: 0.54 *
